{"source": "patent US20210317092A1", "about": "(BAYER PHARMA AKTIENGESELLSCHAFT, priority 2016, published 2021)", "key": {"[1]": {"system": "CFA-induced mechanical hyperalgesia", "assay": "Rat CFA in vivo model (mechanical hyperalgesia, paw withdrawal threshold)", "settings": "dosed 1 h before CFA and 24 h later, mean ± S.D.", "description": "Male Sprague Dawley rats were used. Mechanical hyperalgesia was induced by injecting 25 μL of Complete Freund's Adjuvant (CFA) into the plantar surface of one hind paw. Mechanical hyperalgesia was measured using the Pressure Application Measurement apparatus (Ugo Basile, Gemonio, Italy). Briefly, a linearly increasing pressure was applied to an area of ˜ 50 mm2 of the plantar side of the hind paw until a behavioural response (paw withdrawal) was observed or until the pressure reached 1000 gf. The pressure at which the behavioural response occurred was recorded as the “Paw Withdrawal Threshold” (PWT). Both CFA-injected and contralateral PWTs were determined for each rat, in each treatment group and for the vehicle group at each time point of the studies. Each compound example was administered orally in the vehicle solution of dimethylsulfoxide (DMSO), Polyethylenglycol (PEG) and 2-Hydroxypropyl-beta-cyclodextrin (HPCD) (v/v/v=3:20:77). Rats received a first dose as specified in Table 3 in a solution of 5 mL/kg bodyweight application volume 1 hour before CFA injection and a second dose 24 hours later. Mechanical hyperalgesia testing was performed approximately 2 hours before CFA injection, then 2 and 4 hours after the second dose of compound example (i.e. 26 and 28 hours after CFA treatment). Animals in the vehicle group were treated in the identical way like the other groups but without compound in the orally applied solution. Data were expressed as the mean±S.D. Area Under the Curve (AUC) of PWTs (defined in table 3 as “AUC of Paw withdrawal threshold (AUC 0-4 hours) post-vehicle” with respect to vehicle group or “AUC of Paw withdrawal threshold (AUC 0-4 hours) post-drug” with respect to the compound example). Data were analysed by performing a one-way ANOVA followed by a Dunnett's post hoc test. For p values less than 0.05 the results were deemed to be statistically significant."}, "[2]": {"system": "IL-1B and des-Arg9-bradykinin (DABK) induced paw oedema", "assay": "Rat paw oedema in vivo model", "settings": "p.o., p < 0.05 versus vehicle (6.45 ± 1.14)", "description": "Rat Paw Oedema In Vivo Model\nMale Sprague Dawley rats, approximately 250 g body weight, were used. The compound examples were administered orally in the vehicle as described in “Rat CFA in vivo model”, supra. Rats were treated orally (p.o.) with a solution of 5 mL/kg bodyweight of the vehicle only or 5 mL/kg bodyweight of a solution containing the vehicle plus the compound in a dose as indicated in Table 4. Rats received an intraplantar injection of IL-1B (5 μg in 20 μL) and des-Arg9-bradykinin (DABK; 10 μg in 20 μL) at 20 and 40 minutes after compound treatment, respectively. Paw oedema was measured by water displacement using a plethysmometer (Ugo Basile, Gemonio, Italy). Paw oedema measurement was performed before compound administration (baseline) and subsequently at 20, 40 and 60 minutes after DABK injection. Paw oedema was calculated by subtracting the baseline value to post-DABK treatment values for each individual and at each time point. Data were analysed by calculating the area under the paw oedema time curve for each individual (0-60 minutes post-DABK). The effect of the compound example, relative to that of the vehicle, was analysed by performing a one-way ANOVA followed by a Dunnett's post-hoc test. […] The mean and standard deviation were calculated for each treatment group for graphical representations."}}}
{"compound": "CCOc1ccc(-c2ccc(NC(=O)C3(c4cccc(Cl)c4)CC3)cc2-c2nnn[nH]2)cn1", "note": "[Example 253, 1-(3-Chlorophenyl)-N-[4-(6-ethoxypyridin-3-yl)-3-(1H-tetrazol-5-yl)phenyl]cyclopropanecarboxamide]", "values": [{"measurement": "AUC of Paw withdrawal threshold (AUC 0-4 hours) post-drug", "setting": "[1]; 3 mg/kg p.o., p < 0.05 vs vehicle (1083 ± 93 gf)", "result": "1415 ± 274 gf (*)"}, {"measurement": "AUC of Paw withdrawal threshold (AUC 0-4 hours) post-drug", "setting": "[1]; 10 mg/kg p.o., p < 0.01 vs vehicle (1083 ± 93 gf)", "result": "1439 ± 310 gf (**)"}, {"measurement": "AUC of Paw withdrawal threshold (AUC 0-4 hours) post-drug", "setting": "[1]; 30 mg/kg p.o., p < 0.0001 vs vehicle (1083 ± 93 gf)", "result": "1649 ± 301 gf (***)"}, {"measurement": "AUC of Paw Oedema (AUC 0-1 hour post DABK)", "setting": "[2]; 10 mg/kg", "result": "3.24 ± 2.73 (*)"}, {"measurement": "AUC of Paw Oedema (AUC 0-1 hour post DABK)", "setting": "[2]; 30 mg/kg", "result": "3.67 ± 2.35 (*)"}]}
